Laboratory results: patent publication US12685312B2, “Sulfonamide apyrase inhibitors” (Texas Crop Science, Inc., priority 2022, dated 2026)

Tested on: apyrase
Assay: Screen for apyrase inhibitors (Method 1, in vitro phosphate-release absorbance assay)
Format: biochemical
Settings: inhibitor conc at 1 mM stock, 1 hr room temperature, absorbance 630 nm; rounded average of two assay results
Outline: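 Phosphate-release colorimetric assay (Windsor method) in 60 mM Hepes, 3 mM MgCl2, 3 mM CaCl2, 3 mM ATP, pH 6.5, with compound or DMSO control added. Released phosphate developed with ammonium molybdate and ascorbic acid/TCA, then stopped with citrate/acetic acid.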

| Structure (SMILES) | % Inhibition of Apyrase [%] |
| --- | --- |
| Cc1ccc(C(=O)Nc2ccc(S(=O)(=O)Nc3ccc(F)cc3)cc2)cc1Br [I-974, 3-bromo-N-(4-(N-(4-fluorophenyl)sulfamoyl)phenyl)-4-methylbenzamide] | 63 |
| O=C(Nc1ccc(S(=O)(=O)Nc2cccc(C(F)(F)F)c2)cc1)c1cc([N+](=O)[O-])cc([N+](=O)[O-])c1 [I-975, 3,5-dinitro-N-(4-(N-(3-(trifluoromethyl)phenyl)sulfamoyl)phenyl) benzamide] | 62 |
| O=C(Nc1ccc(S(=O)(=O)Nc2ccc(Cl)cc2)cc1)c1cccc(C(F)(F)F)c1 [I-976, N-(4-(N-(4-chlorophenyl)sulfamoyl)phenyl)-3-(trifluoromethyl)benzamide] | 60 |
| O=C(Nc1ccc(S(=O)(=O)Nc2cccc(C(F)(F)F)c2)cc1)c1ccc(F)cc1Cl [I-977, 2-chloro-4-fluoro-N-(4-(N-(3-(trifluoromethyl)phenyl)sulfamoyl)phenyl) benzamide] | 59 |
| O=C(Nc1ccc(S(=O)(=O)Nc2cccc(C(F)(F)F)c2)cc1)c1ccc(Cl)c([N+](=O)[O-])c1 [I-979, 4-chloro-3-nitro-N-(4-(N-(3-(trifluoromethyl)phenyl)sulfamoyl)phenyl) benzamide] | 58 |
| O=C(Nc1ccc(S(=O)(=O)N2CCc3ccccc32)cc1)c1cccc([N+](=O)[O-])c1 [I-980, N-(4-(indolin-1-ylsulfonyl)phenyl)-3-nitrobenzamide] | 58 |
| CCOc1ccc(NS(=O)(=O)c2ccc(NC(=O)c3cccc(OC(F)F)c3)cc2)cc1 [I-986, 3-(difluoromethoxy)-N-(4-(N-(4-ethoxyphenyl)sulfamoyl)phenyl)benzamide] | 56 |
| NS(=O)(=O)c1cc(C(=O)Nc2ccc(S(=O)(=O)Nc3ccc(Cl)cc3)cc2)ccc1Cl [I-987, 4-chloro-N-(4-(N-(4-chlorophenyl)sulfamoyl)phenyl)-3-sulfamoylbenzamide] | 55 |
| COc1ccc(C(=O)Nc2ccc(S(=O)(=O)Nc3ccc(Cl)cc3)cc2)cc1 [I-988, N-(4-(N-(4-chlorophenyl)sulfamoyl)phenyl)-4-methoxybenzamide] | 55 |
| Cc1ccc(NS(=O)(=O)c2ccc(NC(=O)c3cccc(S(C)(=O)=O)c3)cc2)cc1C [I-989, N-(4-(N-(3,4-dimethylphenyl)sulfamoyl)phenyl)-3-(methylsulfonyl)benzamide] | 54 |
| O=C(Nc1ccc(S(=O)(=O)Nc2cccc(Cl)c2)cc1)c1ccc(F)cc1 [I-990, N-(4-(N-(3-chlorophenyl)sulfamoyl)phenyl)-4-fluorobenzamide] | 53 |
| COc1ccc(NS(=O)(=O)c2ccc(NC(=O)c3cccc(S(=O)(=O)N(C)C)c3)cc2)cc1 [I-991, 3-(N,N-dimethylsulfamoyl)-N-(4-(N-(4-methoxyphenyl)sulfamoyl)phenyl)benzamide] | 53 |
| COc1ccc(NS(=O)(=O)c2ccc(NC(=O)c3cc(Cl)cc(Cl)c3)cc2)cc1 [I-992, 3,5-dichloro-N-(4-(N-(4-methoxyphenyl)sulfamoyl)phenyl)benzamide] | 49 |
| O=C(Nc1ccc(S(=O)(=O)Nc2cccc(C(F)(F)F)c2)cc1)c1cccc(F)c1 [I-998, 3-fluoro-N-(4-(N-(3-(trifluoromethyl)phenyl)sulfamoyl)phenyl) benzamide] | 34 |
| Cc1ccnn1-c1ccc(C(=O)Nc2ccc(NS(=O)(=O)c3ccc4c(c3)OCCO4)cc2)cc1 [I-1003, N-(4-((2,3-dihydrobenzo[b][1,4]dioxine)-6-sulfonamido)phenyl)-4-(5-methyl-1H-pyrazol-1-yl)benzamide] | 47 |
| CCOc1ccc(Br)cc1S(=O)(=O)Nc1ccc(NC(=O)c2ccccc2F)cc1 [I-1004, N-(4-((5-bromo-2-ethoxyphenyl)sulfonamido)phenyl)-2-fluorobenzamide] | 46 |
| COc1ccc(NS(=O)(=O)c2cccc(C(=O)Nc3ccc(C#N)cc3)c2)cc1 [I-1006, N-(4-cyanophenyl)-3-(N-(4-methoxyphenyl)sulfamoyl)benzamide] | 42 |

The remaining lines, values ahead:

| % Inhibition of Apyrase [%] | Structure (SMILES) |
| --- | --- |
| 63 | COc1cccc(C(=O)Nc2ccc(S(=O)(=O)Nc3ccccc3OC)cc2)c1 [I-973, 3-methoxy-N-(4-(N-(2-methoxyphenyl)sulfamoyl)phenyl)benzamide] |
| 59 | COc1ccccc1C(=O)Nc1ccc(S(=O)(=O)Nc2ccc(Cl)cc2)cc1 [I-978, N-(4-(N-(4-chlorophenyl)sulfamoyl)phenyl)-2-methoxybenzamide] |
| 57 | COc1ccccc1NS(=O)(=O)c1ccc(NC(=O)c2ccc3c(c2)OCCO3)cc1 [I-981, N-(4-(N-(2-methoxyphenyl)sulfamoyl)phenyl)-2,3-dihydrobenzo[b][1,4]dioxine-6-carboxamide] |
| 57 | O=C(Nc1ccc(S(=O)(=O)Nc2ccccc2Cl)cc1)c1ccc(Cl)c(Cl)c1 [I-982, 3,4-dichloro-N-(4-(N-(2-chlorophenyl)sulfamoyl)phenyl)benzamide] |
| 57 | COc1ccccc1NS(=O)(=O)c1ccc(NC(=O)c2ccccc2SCC2CCCO2)cc1 (stereo not shown) [I-985, N-(4-(N-(2-methoxyphenyl)sulfamoyl)phenyl)-2-(((tetrahydrofuran-2-yl)methyl)thio)benzamide] |
| 48 | COc1ccccc1NS(=O)(=O)c1ccc(NC(=O)c2cccc([N+](=O)[O-])c2)cc1 [I-993, N-(4-(N-(2-methoxyphenyl)sulfamoyl)phenyl)-3-nitrobenzamide] |
| 47 | O=C(Nc1ccc(S(=O)(=O)Nc2ccccc2Cl)cc1)c1ccc2c(c1)OCCO2 [I-994, N-(4-(N-(2-chlorophenyl)sulfamoyl)phenyl)-2,3-dihydrobenzo[b][1,4]dioxine-6-carboxamide] |
| 46 | COc1ccccc1C(=O)Nc1ccc(S(=O)(=O)Nc2cccc(Cl)c2)cc1 [I-995, N-(4-(N-(3-chlorophenyl)sulfamoyl)phenyl)-2-methoxybenzamide] |
| 46 | COc1ccc(NS(=O)(=O)c2ccc(NC(=O)c3ccccc3OC(F)F)cc2)cc1OC [I-996, 2-(difluoromethoxy)-N-(4-(N-(3,4-dimethoxyphenyl)sulfamoyl)phenyl)benzamide] |
| 43 | COc1ccccc1NS(=O)(=O)c1ccc(NC(=O)c2cccc(C#N)c2)cc1 [I-997, 3-cyano-N-(4-(N-(2-methoxyphenyl)sulfamoyl)phenyl)benzamide] |
| 29 | COc1ccccc1NS(=O)(=O)c1ccc(NC(=O)c2ccc(C#N)cc2)cc1 [I-999, 4-cyano-N-(4-(N-(2-methoxyphenyl)sulfamoyl)phenyl)benzamide] |
| 28 | O=C(Nc1ccc(S(=O)(=O)Nc2cccc(C(F)(F)F)c2)cc1)c1ccccc1 [I-1000, N-(4-(N-(3-(trifluoromethyl)phenyl)sulfamoyl)phenyl) benzamide] |
| 16 | COc1ccc(NS(=O)(=O)c2ccc(NC(=O)c3ccc(Cl)cc3)cc2)cc1 [I-1001, 4-chloro-N-(4-(N-(4-methoxyphenyl)sulfamoyl)phenyl)benzamide] |
| 3 | COc1ccc(NS(=O)(=O)c2ccc(NC(=O)c3ccc(F)cc3)cc2)cc1 [I-1002, 4-fluoro-N-(4-(N-(4-methoxyphenyl)sulfamoyl)phenyl)benzamide] |
